The values below are quoted from earlier work in US10683273B2, “Compounds as DNA probes, methods and applications thereof” (JAWAHARLAL NEHRU CENTRE FOR ADVANCED SCIENTIFIC RESEARCH, priority 2015, dated 2020).

One series has as its system DNA. To be noted: literature values (footnotes a, b); cited from earlier work.
For series [1] the following is noted: literature values (footnotes a, b); cited from earlier work.

Take `CN1C(=Cc2cc[n+](C)c3ccccc23)Oc2ccccc21` [Oxazole yellow (YO), Oxazole yellow]: the “Stokes shift in presence of DNA” value in the series on DNA was 19 nm. Also, the “Stokes shift in absence of DNA” value in series [1] is reported as 100 nm.
On to `CCCN(CCCN(C)C)c1cc(/C=C2/Sc3ccccc3N2C)c2ccccc2[n+]1-c1ccccc1` [SYBR Green 1], for which, in the series with DNA, the “Stokes shift in presence of DNA” value is 26 nm. Moreover, the “Stokes shift in absence of DNA” value in series [1] is 36 nm.
With `CN1C(=Cc2cc[n+](C)c3ccccc23)Sc2ccccc21` [Thiazole orange (TO), Thiazole orange], the “Stokes shift in presence of DNA” value with DNA is listed as 18 nm. Moreover, the “Stokes shift in absence of DNA” value in series [1] is recorded as 139 nm.
As for `CN(C)CCCN(CCCN(C)C)c1cc(C=C2Sc3ccccc3N2C)c2ccccc2[n+]1-c1ccccc1` [Picogreen], the “Stokes shift in presence of DNA” value in the series with DNA is 21 nm. The “Stokes shift in absence of DNA” value in series [1] was 30 nm.
As for `CN1/C(=C/c2cc[n+](CCC[N+](C)(C)CCC[N+](C)(C)CCC[n+]3ccc(/C=C4\Sc5ccccc5N4C)c4ccccc43)c3ccccc23)Sc2ccccc21.[I-].[I-].[I-].[I-]` [TOTO-1], the “Stokes shift in presence of DNA” value with DNA is reported as 19 nm. Besides, the “Stokes shift in absence of DNA” value in series [1] is listed as 149 nm.
With `CN1/C(=C/c2cc[n+](CCC[N+](C)(C)CCC[N+](C)(C)CCC[n+]3ccc(/C=C4/Oc5ccccc5N4C)c4ccccc43)c3ccccc23)Oc2ccccc21.[I-].[I-].[I-].[I-]` [YOYO-1], the “Stokes shift in presence of DNA” value in the series with DNA was 20 nm. Also, in series [1], the “Stokes shift in absence of DNA” value is on record as 106 nm.
